Patent US12071431B2, “Pyridin-sulfonamide compounds for the treatment of conditions related to interleukin 1 beta” (ALLINKY BIOPHARMA, priority 2018, dated 2024)

Legend:
IL-1β = assay: In vitro inhibition of IL-1β in human primary macrophages challenged with LPS (ELISA); type: cell-based; settings: Primary macrophage, 2 hours compound pre-treatment, 100 ng/mL LPS, 16 hours, read-out: IC50 (IL-Iβ inhibition)
Protocol: Example 12—In Vitro Inhibition of IL-1β in Human Primary Macrophages Challenged with LPS
5 mL of RPMI media without serum (1:1) was added to a sample of 5 mL of human whole blood in EDTA or sodium citrate and mixed well by inversion. 3 mL of Histopaque-1077 was added to a 15 mL conical centrifuge tube and brought to room temperature. Using a transfer pipette, 10 mL of the blood-RPMI mixture was carefully layered onto the Histopaque-1077 and was centrifuged at 400×g for exactly 30 minutes at room temperature.
After centrifugation, a pasteur pipette was used to aspirate the upper layer to within 0.5 cm of the opaque interface containing the mononuclear cells. The upper layer was discarded. With a Pasteur pipette, the opaque interface was carefully transferred to a clean conical centrifuge tube. 5 mL RPMI was added to the tube and mixed by inversion, followed by centrifugation at 250×g for exactly 10 minutes. The supernatant was aspirated and discarded.
The leukocyte pellet was re-suspended with 5 mL RPMI and mixed gently with a Pasteur pipette, followed by centrifugation at 250×g for exactly 10 minutes. The pellet was washed 3× with PBS and re-suspended in RPMI medium.
2×10^5 PBMCs at a total volume of 200 μL/well were plated into a 96-well plate and incubated for 4 hrs at 37° C. in a CO2 incubator to allow the monocytes to settle, leaving the lymphocytes in suspension. Following incubation, 100 μL were aspirated out of each well to ensure removal of the lymphocyte population.
The monocytes were differentiated to macrophages by addition of 200 ng/mL of recombinant human GM-CSF (4 mg/mL stock) and incubated at 37° C./5% CO2 for 6 days. The medium was changed every two days by removing half the volume of medium in the well and re-supplementing with fresh RPMI complete medium and recombinant human GM-CSF.
Following differentiation, the cells were treated in duplicates with a compound according to the invention in a total volume of 50 μL, maintaining a final DMSO percentile of 0.5%. The plate was transferred to an incubator maintained at 37° C./5% CO2 for 2 hours. The cells were stimulated with 100 ng/mL of LPS (4×) (1 mg/mL stock) in a total volume of 50 μL.
The plate was transferred to an incubator maintained at 37° C./5% CO2 for 16 hours.
• 1. Each well from a pre-coated ELISA plate was aspirated and washed with wash buffer (0.05% Tween 20 in PBS; pH 7.2-7.4) by filling each well with wash buffer (300 μL). The process was repeated two times for a total of three washes. The liquid was removed completely at each step. After the last wash, any remaining wash buffer was removed. • 2. Plates were blocked by adding 300 μL of block buffer (1% BSA in PBS) to each well and incubated at room temperature for 1 hour. • 3. The aspiration/wash as in step 1 was repeated. • 4. 100 μL of sample or standard prepared in reagent diluent (0.1% BSA, 0.05% Tween 20 in PBS pH7.2-7.4) was added. The wells were covered with an adhesive strip and incubated for 2 hours at room temperature. • 5. The aspiration/wash as in step 1 was repeated. • 6. 100 μL of detection antibody, diluted in reagent diluent, was added to each well. The wells were covered with a new adhesive strip and incubated for 2 hours at room temperature. • 7. The aspiration/wash as in step 1 was repeated. • 8. 100 μL of the working dilution (1:200 from the stock) and streptavidin-HRP was added to each well. The plate was covered and incubated for 20 minutes at room temperature. • 9. 100 μL of substrate solution (1:1 mixture of H2O2 and tetramethylbenzidine) was added to each well and incubated for 20 minutes at room temperature. • 10.50 μL of stop solution (2N H2SO4) was added to each well. The plate was tapped gently to ensure thorough mixing. • 11. The optical density of each well was determined immediately using a microplate reader (Spectramax Plus) set to 450 nm. Cytokine Viability Assessment […]

Bleomycin-induced IPF = assay: Treatment of bleomycin-induced IPF in mice; type: in vivo
Text: Example 16: Effect of Compound 7 in the Treatment of Bleomycin-Induced IPF Timed pregnant mice (n=30) were selected for the study. The delivered pups were subcutaneously injected on the post-natal day 2 (PND-2) with 1.5 U/kg of Bleomycin (intra-tracheal) and were allowed to remain with the mother until they reached the weanling age. After weanling, the male pups were selected and fed with 60% kcal fat diet (Research Diet-D12492) for the next week. All the animals were observed twice daily for clinical signs. Mice were orally dosed with vehicle, test compounds and reference compound (Pirfenidone) twice daily morning (9.00 AM) and evening before the start of dark cycle (6:00 PM) from day 0 to 14. Animal body weight measurements were made daily for the complete duration of the experiment. Animals were dosed for 14 days with the test and reference compounds. Lung hydroxyproline level was estimated before the treatment start and on the termination day 14. Total cell count and differential leukocyte count in BALF were measured before the treatment start and on […]. Histopathology analysis in the form of H&E Ashcroft score was performed for the lung tissues. All the H&E stained tissue sections were examined by light microscopy. As per the below grading system (Kleiner et al., 2005) in 200× objective lens, IPF scoring was carried out. Collagen Proportion Area (% CPA) Measurement: Masson's Trichrome Staining All the Masson's trichrome stained tissue sections were examined by light microscopy in 100× objective lens. Randomly selected five fields (approx 684.85 μm×917.11m per field) from each lung were subjected to collagen proportion area measurement by using Image Pro Premier 9.1 software. The percentage of collagen proportion area was calculated by dividing collagen tissue area by total tissue area.

CCOc1ccc(Oc2cc(S(=O)(=O)N(C)C)cnc2N2CCC(Oc3ccc(Cl)cc3)CC2)cc1 [Compound 7]
IC50 (IL-1β): 27 nM | lung hydroxyproline levels (Bleomycin-induced IPF; 15 mg/kg dose, oral twice daily, 14 days, vs Bleomycin control, FIG. 4): significantly reduced | reduction of lung hydroxyproline levels compared with Pirfenidone (Bleomycin-induced IPF; Compound 7 15 mg/kg vs 100 mg/kg Pirfenidone): higher than for 100 mg/kg Pirfenidone | BALF macrophage counts (Bleomycin-induced IPF; compared with Bleomycin control, Compound 7 p>0.05, Pirfenidone p<0.05, FIGS. 5A and 5B): reduced | % CPA (Collagen Proportion Area) (Bleomycin-induced IPF; lung, Masson's trichrome, in comparison with Bleomycin control, p<0.05, FIG. 6B): significant reduction | fibrosis score (H&E Ashcroft Score) (Bleomycin-induced IPF; lung, in comparison with Bleomycin control, p<0.05, FIG. 6A): significant reduction
